Results taken from patent publication US20030226169A1, “DNA sequences encoding antifungal proteins” (priority 1995, published 2003).

Key:
[1] = test system: yeast; conditions: at concentrations as high as 500 μg/ml; cited from earlier work
[2] = test system: Verticillium dahliae (MUCL 19210); assay: Antifungal growth inhibition microplate assay (photospectrometry); format: cell-based; conditions: Rs-AFP2 15-mer MPS peptides; one test; 96 hours
In short: (§1)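 Spores (2×10^4/ml) in half-strength potato dextrose broth exposed to test solution, incubated in the dark at room temperature for about 72 h (96 h for V. dahliae). Growth by OD595 minus 30-min reading; IC50 is 50% and MIC 100% growth inhibition.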

[3] = test system: Alternaria brassicicola (MUCL 20297); assay: as above; format: cell-based; conditions: Rs-AFP2 15-mer MPS peptides; one test
In short: as §1

[4] = test system: Botrytis cinerea (MUCL 30158); assay: as above; format: cell-based; conditions: Rs-AFP2 15-mer MPS peptides; one test
In short: as §1

[5] = test system: Fusarium culmorum (IMI 180420); assay: as above; format: cell-based
In short: as §1

[6] = test system: various fungi; conditions: on various fungi; cited from earlier work
[7] = test system: Ascophyta pisi (MUCL 30164); format: cell-based; conditions: Rs-AFP2 15-mer MPS peptides; one test
Procedure: The following fungal strains were used: Alternaria brassicicola (MUCL 20297), Ascophyta pisi (MUCL 30164), Botrytis cinerea (MUCL 30158), Fusarium culmorum (IMI 180420) and Verticillium dahliae (MUCL 19210).
Fungi were grown on six cereal agar plates at room temperature and under white fluorescent light except for F culmorum and V dahliae which were grown in the dark. The duration of the spore harvest varied between 10 and 25 days depending on the strain. Spores were collected as follows. Five to ten ml of sterile milli-Q water was poured into each dish and the surface of the agar was rubbed with a sterile spatula to obtain a suspension containing mycelium and spores. This suspension was filtered through a sterile glasswool-plugged funnel and the filtrate containing the spores was collected in a sterile polypropylene centrifuge tube. The A brassicicola spores were suspended in sterile 0.1 Tween 20 (Merk, 822184) due to their hydrophobic nature. The spore suspensions were then washed twice by centrifugation at 2,400×g for 15 minutes and resuspended in a small volume of steril milli-Q water. The spore density was determined in a counting chamber and then adjusted to 4×10^7 spores per ml. Aliquots of the spore suspension were transferred to sterile microtubes and an equal volume of sterile 50% glycerol (Merck, 4091) was added to each tube so that a final spore suspension of 2×10^7 spores per ml in 25% glycerol was obtained. After careful mixing of the stock, the spore suspension was transferred in 100 μl aliquots to sterile microtubes and stored at −80° C.
Antifungal activity was measured by photospectrometry as described by Broekaert et al, (1990, FEMS Microbiol Lett, 69:55-60). Tests were performed by adding 20 μl of test solution and 80 μl of a fungal spore suspension (2×10^4 spores/ml) per well in a sterile flat-bottom 96-well microtiterplate. The spore suspension was prepared by diluting the stock spore suspension ([…] in 25% glycerol) 1:1000 in half-strength potato dextrose broth. A positive growth control consisting of eight wells containing 20 μl of sterile milli-Q water and 80 μl of the fungal spore suspension was included in each test. The microtiterplates were incubated (with the lid on) in an aerated place at room temperature and under conditions of darkness for all test organisms.
After 30 minutes of incubation (when the spores are settled on the well bottom) the optical density was measured in a microplate reader (Bio Rad 3550-UV) at 595 nm. Incubation of the microtiterplates continued until the optical density of the control microculture was between 0.250 and 0.500, which took approximately 72 hours (96 hours for V dahliae). Percentage of growth inhibition (% GI) was estimated as 100 times the ratio of the corrected absorbance of the control microculture minus the corrected absorbance of the test microculture over the corrected absorbance of the control microculture at 595 nm. The corrected absorbance values equal the absorbance at 595 nm of the culture measured after 72 or 96 hours minus the absorbance at 595 nm measured after 30 minutes.
% GI=[(Acontrol−Atest/Acontrol]×100
where Acontrol=(A72/96h−A30min)control
The IC50 value is defined as the concentration that gives a 50% growth inhibition after 72 or 96 hours of incubation. The minimum inhibitory concentration (MIC) corresponds to the minimum concentration that gives 100% growth inhibition after 72 or 96 hours incubation.

[8] = Table 14: 18-, 19-, 20-mer peptides with C-terminal Phe49, duplo

Rs-AFP2: antifungal protein 2 (plant defensin) from radish (Raphanus sativus) seeds; positive control (QKLCQRPSGTWSGVCGNNNACKNQCIRLEKARHGSCNYVFPAHKCICYFPC; listed as Raphanus sativus)
adverse effects on yeast [1]: does not have adverse effects
MIC VALUES V DAHLIAE [2]: 10 µg/mL
MIC VALUES A BRASSICICOLA [3]: 10 µg/mL
MIC VALUES B CINEREA [4]: >40 µg/mL
MIC VALUES F CULMORUM MPS ([5]; Rs-AFP2 15-mer MPS peptides, medium value of five tests): 5 to 10 µg/mL
MIC VALUES F CULMORUM Split ([5]; Rs-AFP2 15-mer split peptides (extra C-terminal beta-alanine), dilution 500-3.9 μg/ml, duplicate, MIC approximations): 10 µg/mL
MIC ([5]; Table 12: Rs-AFP2 15-mer peptides, ½ PDB): 3 µg/mL
MIC ([5]; Table 12: ½ PDB supplemented with 1 mM CaCl2): 6 µg/mL
MIC ([5]; Table 12: ½ PDB supplemented with 5 mM CaCl2): 6 µg/mL
MIC ([5]; Table 12: ½ PDB supplemented with 10 mM KCl): 3 µg/mL
MIC ([5]; Table 12: ½ PDB supplemented with 50 mM KCl): 3 µg/mL
MIC ([5]; Table 12: ½ PDB supplemented with 50 mM KCl, 1 mM CaCl2): 6 µg/mL
IC50 1/2 PDB ([5]; Table 13: linear β2-β3 loop MPS peptides, 2 × 10^4 spores/ml, duplo): 3.3 ± 0.0 µg/mL
IC50 SMF + pH5 ([5]; Table 13: linear β2-β3 loop MPS peptides, SMF+ (1 mM Ca2+, 50 mM K+) pH5, duplo): 5.2 ± 1.2 μg/ml
IC50 SMF + pH7 ([5]; Table 13: linear β2-β3 loop MPS peptides, SMF+ (1 mM Ca2+, 50 mM K+) pH7, duplo): 6.1 ± 1.3 μg/ml
IC50 SMF + pH5 [5, 8]: 7.2 ± 0.6 μg/ml
IC50 SMF + pH7 [5, 8]: 3.7 ± 0.6 μg/ml
IC50 ½ PDB ([5]; Table 14: 18-, 19-, 20-mer peptides with C-terminal Phe49, peptides single experiment): 2.5 ± 0.8 µg/mL
activity relative to Rs-AFP1 [6]: two- to thirty-fold more active
MIC VALUES A PISI [7]: 20 to 40 µg/mL
